Laboratory results reported in US4444690A, “Technetium chelates” (priority 1982, dated 1984).
Where two headings read alike, the source gives them in different places.

Experiments:
[1] = mice, mean of 6
Description: The time course of organ distribution was determined in groups of six Hal Cr female albino mice. They were injected with 0.10 ml (0.5 uCi) of the preparation. For comparison purposes, 0.2 uCi OIH was added to each injection. The mice were placed in metabolic cages for the collection of excreted urine. At indicated intervals after injection, the urethra was ligated and the mice killed with chloroform vapor.

[2] = in vivo; cited from earlier work
[3] = 120 min post injection, 120 min

O=C(O)C1C(C(=O)O)[N]2C(=O)C[S][99Tc-]23(=[O])[S]CC(=O)[N]13 (single isomer, unassigned) [Tc--99m--2,3--(MERCAPTOACETAMIDO) SUCCINATE Component A] [Tc-99m chelate of 2,3-bis(mercaptoacetamido)succinic acid]
Blood ([1]; 10 min post injection): 10.13
Intestines ([1]; 10 min post injection): 2.16
Kidneys ([1]; 10 min post injection): 3.41
Liver ([1]; 10 min post injection): 5.80
Stomach ([1]; 10 min post injection): 0.40
Urine ([1]; 10 min post injection, 10 min): 32.32
Blood ([1]; 120 min post injection): 0.44
Intestines ([1]; 120 min post injection): 0.30
Kidneys ([1]; 120 min post injection): 7.44
Liver ([1]; 120 min post injection): 3.17
Stomach ([1]; 120 min post injection): 0.03
Urine [1, 3]: 77.73

O=C(O)C1C(C(=O)O)[N]2C(=O)C[S][99Tc-]23(=[O])[S]CC(=O)[N]13 (single isomer, unassigned) [Tc--99m--2,3--(MERCAPTOACETAMIDO) SUCCINATE Component B] [Tc-99m chelate of 2,3-bis(mercaptoacetamido)succinic acid]
Blood ([1]; 10 min post injection): 16.21
Intestines ([1]; 10 min post injection): 2.88
Kidneys ([1]; 10 min post injection): 3.43
Liver ([1]; 10 min post injection): 7.06
Stomach ([1]; 10 min post injection): 0.53
Urine ([1]; 10 min post injection, 10 min): 19.32
Blood ([1]; 120 min post injection): 0.87
Intestines ([1]; 120 min post injection): 8.85
Kidneys ([1]; 120 min post injection): 0.65
Liver ([1]; 120 min post injection): 2.33
Stomach ([1]; 120 min post injection): 0.49
Urine [1, 3]: 66.92

Tc-99m diethylenetriaminepentaacetic acid [Tc-99m DTPA]
extraction efficiency [2]: ≤ 20%
